Our source for the GI50 values is US20240383923A1, “HETEROARYL DERIVATIVE AND USE THEREOF” (VORONOI INC., priority 2022, published 2024).

The test system of this test is BT-474 cancer cells. Kind of test: Inhibition of BT-474 cell proliferation (CellTiter-Glo). It is filed as cell-based. As to conditions: Homo sapiens, BT-474 cells, 120 hours. The protocol: BT-474 cancer cells were cultured by using RPMI-1640 medium containing 20% FBS. The BT-474 cancer cells were seeded to a white clear bottom 96 well plate (Corning) at 5,000 cells per well 48 hours before the BT-474 cancer cells were treated with Example Compounds. Example Compounds were diluted in dimethylsulfoxide (3-fold diluted, total 11 concentrations) and 1 μL each was injected so that the final concentration was 0.2 nM to 10 μM. For the measurement of living cells, the cells were stored at room temperature for 10 minutes using the CellTiter-Glo cell viability reagent (Promega) after a predetermined time (120 hours) after the treatment of Example Compounds, and then the luminescence intensity was measured using a reader (SynergyNeo, Biotek). Each test was repeated three times.
The result value was calculated as a cell growth rate (%) compared to a control group. Graphs were plotted and GI50 values were calculated using the GraphPad Prism version 8.0 program, and the results are shown in Table 18 below.
In general terms: Cellular ATP, detected with luciferase, serves as a proxy for viable cell number.
As for `C=CC(=O)N1CCC(Nc2cc3c(Nc4cc(C)c(Oc5ccn6ncnc6c5)cc4OC4CN(C)C4)ncnc3cc2OC)CC1` [Example 4, 1-(4-((4-((4-([1,2,4]triazolo[1,5-a]pyridin-7-yloxy)-5-methyl-2-((1-methylazetidin-3-yl)oxy)phenyl)amino)-7-methoxyquinazolin-6-yl)amino)piperidin-1-yl)prop-2-en-1-one], the GI50 (commonly the concentration at which growth is held to half of that of the control) lay within 100 to 500 nM.
Turning to `C=CC(=O)N1CCC(Oc2cc3c(Nc4ccc(Oc5ccn(-c6cnc(OC)nc6)n5)cc4OC)ncnc3cc2OC)CC1` [Example 10, 1-(4-((7-methoxy-4-((2-methoxy-4-((1-(2-methoxypyrimidin-5-yl)-1H-pyrazol-3-yl)oxy)phenyl)amino)quinazolin-6-yl)oxy)piperidin-1-yl)prop-2-en-1-one], the GI50 lay in the range of 100 to 500 nM.
As to `C=CC(=O)N1CCC(Oc2cc3c(Nc4cc(Cl)c(Oc5cccc(OC)c5)cc4OC)ncnc3cc2OC)CC1` [Example 11, 1-(4-((4-((5-chloro-2-methoxy-4-(3-methoxyphenoxy)phenyl)amino)-7-methoxyquinazolin-6-yl)oxy)piperidin-1-yl)prop-2-en-1-one], the GI50 is not above 50 nM.
With `COc1cc(Oc2ccn3ncnc3c2)c(C)cc1Nc1ncnc2cc(OC)c(OC3CCN(C(=O)C(F)Cl)CC3)cc12` (stereo not shown) [Example 14, 1-(4-((4-((4-([1,2,4]triazolo[1,5-a]pyridin-7-yloxy)-2-methoxy-5-methylphenyl)amino)-7-methoxyquinazolin-6-yl)oxy)piperidin-1-yl)-2-chloro-2-fluoroethan-1-one], the GI50 is not above 50 nM.
For the compound `C=CC(=O)N1CC2CC1CC2Oc1cc2c(Nc3cc(C)c(Oc4ccn5ncnc5c4)cc3OC)ncnc2cc1OC` (stereo not shown) [Example 18, 1-(5-((4-((4-([1,2,4]triazolo[1,5-a]pyridin-7-yloxy)-2-methoxy-5-methylphenyl)amino)-7-methoxyquinazolin-6-yl)oxy)-2-azabicyclo[2.2.1]heptan-2-yl)prop-2-en-1-one], the GI50 is not above 50 nM.
Regarding `C=CC(=O)N1CC(Oc2cc3c(Nc4cc(C)c(Oc5ccn6ncnc6c5)cc4OC)ncnc3cc2OC)C1` [Example 19, 1-(3-((4-((4-([1,2,4]triazolo[1,5-a]pyridin-7-yloxy)-2-methoxy-5-methylphenyl)amino)-7-methoxyquinazolin-6-yl)oxy)azetidin-1-yl)prop-2-en-1-one], the GI50 is not above 50 nM.
With `C=CC(=O)N1CCOc2cc3ncnc(Nc4cc(C)c(Oc5ccn6ncnc6c5)cc4OC)c3cc21` [Example 21, 1-(4-((4-([1,2,4]triazolo[1,5-a]pyridin-7-yloxy)-2-methoxy-5-methylphenyl)amino)-7,8-dihydro-6H-[1,4]oxazino[3,2-g]quinazolin-6-yl)prop-2-en-1-one] the figure was 100 to 500 nM; with `C=CC(=O)Nc1cc2c(Nc3cc(C)c(Oc4ccn5ncnc5c4)cc3OC)ncnc2cc1N1CCC(N2CCOCC2)CC1` [Example 22, N-(4-((4-([1,2,4]triazolo[1,5-a]pyridin-7-yloxy)-2-methoxy-5-methylphenyl)amino)-7-(4-morpholinopiperidin-1-yl)quinazolin-6-yl)acrylamide], 50 to 100 nM; with `C=CC(=O)Nc1cc2c(Nc3cc(C)c(Oc4ccn5ncnc5c4)cc3OC)ncnc2cc1N1CCOCC1` [Example 23, N-(4-((4-([1,2,4]triazolo[1,5-a]pyridin-7-yloxy)-2-methoxy-5-methylphenyl)amino)-7-morpholinoquinazolin-6-yl)acrylamide], more than 500 nM.
With `COc1cc(Oc2ccn3ncnc3c2)c(C)cc1Nc1ncnc2ccc(NC(=O)/C=C/CN(C)C)c(Cl)c12` [Example 26, (E)-N-(4-((4-([1,2,4]triazolo[1,5-a]pyridin-7-yloxy)-2-methoxy-5-methylphenyl)amino)-5-chloroquinazolin-6-yl)-4-(dimethylamino)but-2-enamide] the figure was not above 50 nM; with `C=CC(=O)N1CCN(c2ncc3ncnc(Nc4cc(C)c(Oc5ccn6ncnc6c5)cc4OC)c3n2)CC1` [Example 27, 1-(4-(8-((4-([1,2,4]triazolo[1,5-a]pyridin-7-yloxy)-2-methoxy-5-methylphenyl)amino)pyrimido[5,4-d]pyrimidin-2-yl)piperazin-1-yl)prop-2-en-1-one], not above 50 nM; with `CC#CC(=O)Nc1cc2c(Nc3cc(C)c(Oc4ccn5ncnc5c4)cc3OC)ncnc2cc1OC` [Example 28, N-(4-((4-([1,2,4]triazolo[1,5-a]pyridin-7-yloxy)-2-methoxy-5-methylphenyl)amino)-7-methoxyquinazolin-6-yl)but-2-ynamide], not above 50 nM.
The value for `COc1cc2ncnc(Nc3cc(C)c(Oc4ccn5ncnc5c4)cc3OC)c2cc1NC(=O)/C=C/CNC1CCS(=O)(=O)CC1` [Example 38, (E)-N-(4-((4-([1,2,4]triazolo[1,5-a]pyridin-7-yloxy)-2-methoxy-5-methylphenyl)amino)-7-methoxyquinazolin-6-yl)-4-((1,1-dioxidotetrahydro-2H-thiopyran-4-yl)amino)but-2-enamide] was not above 50 nM.
Take `COc1cc2ncnc(Nc3cc(C)c(Oc4ccn5ncnc5c4)cc3OC)c2cc1NC(=O)/C=C/CN1CC2(COC2)C1` [Example 40, (E)-N-(4-((4-([1,2,4]triazolo[1,5-a]pyridin-7-yloxy)-2-methoxy-5-methylphenyl)amino)-7-methoxyquinazolin-6-yl)-4-(2-oxa-6-azaspiro[3.3]heptan-6-yl)but-2-enamide]: the GI50 was not above 50 nM.
For the compound `COc1cc2ncnc(Nc3cc(C)c(Oc4ccn5ncnc5c4)cc3OC)c2cc1NC(=O)/C(F)=C/C1CCCN1C` (stereo not shown) [Example 43, (Z)—N-(4-((4-([1,2,4]triazolo[1,5-a]pyridin-7-yloxy)-2-methoxy-5-methylphenyl)amino)-7-methoxyquinazolin-6-yl)-2-fluoro-3-(1-methylpyrrolidin-2-yl)acrylamide], the concentration for 50% growth inhibition (GI50) is not above 50 nM.
As to `COc1cc2ncnc(Nc3cc(C)c(Oc4ccn5ncnc5c4)cc3OC)c2cc1NC(=O)/C(F)=C\[C@@H]1CCCN1C` [Example 44, (S,E)-N-(4-((4-([1,2,4]triazolo[1,5-a]pyridin-7-yloxy)-2-methoxy-5-methylphenyl)amino)-7-methoxyquinazolin-6-yl)-2-fluoro-3-(1-methylpyrrolidin-2-yl)acrylamide], the GI50 was not above 50 nM.
`COc1cc2ncnc(Nc3cc(C)c(Oc4cc5ncnn5cn4)cc3OC)c2cc1NC(=O)/C(F)=C\[C@H]1CCCN1C` [Example 47, (R,E)-N-(4-((4-([1,2,4]triazolo[1,5-c]pyrimidin-7-yloxy)-2-methoxy-5-methylphenyl)amino)-7-methoxyquinazolin-6-yl)-2-fluoro-3-(1-methylpyrrolidin-2-yl)acrylamide]: the GI50 is not above 50 nM.
`COc1cc2ncnc(Nc3cc(C)c(Oc4cc5ncnn5cn4)cc3OC)c2cc1NC(=O)/C(F)=C/[C@H]1CCCN1C` [Example 48, (R,Z)—N-(4-((4-([1,2,4]triazolo[1,5-c]pyrimidin-7-yloxy)-2-methoxy-5-methylphenyl)amino)-7-methoxyquinazolin-6-yl)-2-fluoro-3-(1-methylpyrrolidin-2-yl)acrylamide]: the GI50 is not above 50 nM.
As to `COc1cc2ncnc(Nc3cc(F)c(Oc4ccn5ncnc5c4)cc3OC)c2cc1NC(=O)/C(F)=C\[C@H]1CCCN1C` [Example 49, (R,E)-N-(4-((4-([1,2,4]triazolo[1,5-a]pyridin-7-yloxy)-5-fluoro-2-methoxyphenyl)amino)-7-methoxyquinazolin-6-yl)-2-fluoro-3-(1-methylpyrrolidin-2-yl)acrylamide], the GI50 is not above 50 nM.
